Data as given in patent US6730666B1, “Pharmaceutical compositions comprising porphyrins and some novel porphyrin derivatives” (Yeda Research and Development Co. Ltd., priority 1998, dated 2004).

Experiments:
FGFR-3 = target: T1, FGFR-3 (Homo sapiens, UniProt P22607); test: FGFR-3 tyrosine phosphorylation immunoblot (FGF-9 induced); format: cell-based; details: FIG. 14
T1 construct: expressed in transfected cells; host or cells: CHO cells (mutant 745)
Experimental: (§1) (viii) Immunoblots. To the overnight serum-starved cells (2 plates for each treatment), 500 μl of F12^++ medium were added which either contained or not the respective porphyrin or corrole compound in a final concentration of […] for 40 min at 37° C. One of the two plates of each treatment was then stimulated with FGF9 (+) (75 ng/ml) and to the second plate only medium (−) was added for 10 min at 37° C. The cells were washed twice with PBS. 600 μl of SBN lysis buffer containing 1% NP-40 and 1 mM vanadate were added and left on ice for 10 min. The plates were then scraped and left on ice for additional 10 min. The lysate was span down in Eppendorf centrifuge for 15 min, 15000 rpm at 4° C. The supernatants were kept and Bradford protein determinant on assay was performed in the samples. 500 μg protein from each sample were taken for immunoprecipitation with 7.5 μl antibody against FGFR-3, 4 hr at 4° C.
In order to measure the ability of the porphyrins to inhibit the receptor activation on an enzymatic level as well, FGFR-3 tyrosine phosphorylation was measured in the presence of P16, as described in Methods, section (viii).

ERK = ERK phosphorylation in FGFR-3 expressing cells induced by FGF-9; format: cell-based; details: FIG. 15B
Experimental: as §1
These findings support the notion that the porphyrins can serve for treating FGFR-3 related growth disorders. ERK1 and ERK2 are two isoforms of ERK.

[1] = tested on: microvascular tubules sprouting from rat aorta sections; test: Rat aorta in vitro angiogenesis assay (collagen gel, bFGF-induced); format: cell-based
Experimental: (vi) Rat aorta in vitro angiogenesis assay. Rings of rat aorta sections were immobilized in a three-dimensional collagen gel, in the presence of serum free growth medium (D/MEM) (Nicosia & Ottinetti, 1990). Porphyrin or corrole compound and bFGF (2 ng/ml) were added to the growth medium twice a week when indicated. After 14 days the cultures were fixed, and the extent of microvascular endothelial tube outgrowth was measured under a light microscope (Miao et al., 1997).
The effect of P1 was further examined in a biological assay for angiogenesis in vitro. Angiogenic vascularization is a process in which bFGF is known to play a pivotal role (Folkman, 1989). To examine the inhibitory effects of the porphyrin on bFGF-promoted angiogenesis, we employed an in vitro angiogenic assay using rat aorta sections embedded in a collagen gel (Methods, section (vi)). The assay measures the extent of endothelial cell growth and microvascular tubules sprouting from the vessel tissue embedded in the gel. Basal tubule formation can be detected even when no additional factors are added.

[2] = tested on: NIH 3T3 cells expressing signal peptide bFGF; test: Tumor formation induced by signal peptide bFGF expressing NIH 3T3 cells in nude mice; format: in vivo, Balb/C nude mice; details: free P1, 25 μg/g of body mass IP twice a week, after 4 weeks
Experimental: (v) Inhibition by porphyrins of tumor formation induced by signal peptide bFGF expressing cells NIH 3T3 cells expressing signal peptide bFGF were injected subcutaneously to Balb/C nude mice as described (Yayon and Klagsbrun, 1990). Porphyrin/corrole compound at 25 μg/g of body mass was injected IP (intraperitoneally) twice a week and after 4 weeks the tumor size was measured.
After establishing the ability of P1 to inhibit FGF biological activity in vitro, the capacity of P1 to inhibit bFGF-induced tumor growth and metastasis was evaluated in vivo. First, the inhibition of tumor growth induced by signal peptide bFGF in a nude mice model was measured (Methods, section (v)). Upon addition of a signal peptide residue to bFGF, the protein is capable of transforming NIH 3T3 cells which, when injected to nude mice, grow and form a tumor Rayon & Klagsbrun, 1990). NIH 3T3 cells expressing signal peptide bFGF were injected subcutaneously to Balb/C nude mice, and P1 either free or liposome incorporated (as described by Jori and Reddi, 1993) (25 μg/g of body mass) were given twice a week by intraperitoneal injection.

FGFR-1 = FGFR-1 (Mus musculus, UniProt P16092); test: Covalent cross-linking of 125I-bFGF to CHO cells transfected with FGFR-1; format: binding; set-up: expressed in transfected cells; host or cells: CHO cells deficient in heparan sulfate; details: FIG. 2
Chain of FGFR-1 (P16092 22-822): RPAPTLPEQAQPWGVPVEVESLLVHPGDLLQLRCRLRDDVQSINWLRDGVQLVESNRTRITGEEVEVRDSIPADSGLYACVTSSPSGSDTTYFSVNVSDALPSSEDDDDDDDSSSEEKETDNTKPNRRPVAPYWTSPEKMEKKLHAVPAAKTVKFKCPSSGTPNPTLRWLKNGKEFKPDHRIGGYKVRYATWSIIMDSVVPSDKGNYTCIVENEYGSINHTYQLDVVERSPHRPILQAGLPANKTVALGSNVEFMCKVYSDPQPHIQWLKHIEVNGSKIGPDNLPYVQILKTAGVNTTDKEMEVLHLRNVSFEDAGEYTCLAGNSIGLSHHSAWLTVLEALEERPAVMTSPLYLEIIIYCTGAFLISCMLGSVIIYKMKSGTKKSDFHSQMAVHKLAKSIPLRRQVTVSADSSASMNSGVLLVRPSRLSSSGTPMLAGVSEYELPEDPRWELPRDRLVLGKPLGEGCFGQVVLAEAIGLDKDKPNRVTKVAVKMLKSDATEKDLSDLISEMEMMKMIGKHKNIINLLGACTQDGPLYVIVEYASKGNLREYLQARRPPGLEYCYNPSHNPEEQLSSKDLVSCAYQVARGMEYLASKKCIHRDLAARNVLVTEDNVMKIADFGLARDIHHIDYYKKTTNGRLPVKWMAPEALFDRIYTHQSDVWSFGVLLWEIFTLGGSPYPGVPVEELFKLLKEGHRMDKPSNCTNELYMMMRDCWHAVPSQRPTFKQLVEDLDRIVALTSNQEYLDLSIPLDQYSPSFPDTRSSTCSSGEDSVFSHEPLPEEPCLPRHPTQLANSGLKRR
Experimental: Binding of ^125I-bFGF to confluent monolayers of PGFR-1 expressing CHO cells or ^125I-FGF9 to FGFR-3 expressing CHO cells, was performed as described in Methods, section (iv), in the presence or absence of P1 (Inhibitor). After 90 min, disuccinylimidyl suberate [DSS]
(iv) Binding of ^125I-bFGF and ^125I-FGF9 to cells. Confluent cultures of CHO cells expressing FGFR-1(Yayon et al, 1991) or FGFR-3 (Hecht et al, 1995) in 24-well plates (Falcon) were precooled and washed twice with cold DMEM supplemented with 20 mM Hepes (pH 7.5) and 0.1% bovine serum albumin (DMEM/BSA). They were then incubated for 1.5 h at 4° C. with ^125I-bFGF (2 ng/ml) and increasing concentrations of porphyrin/corrole compound. The binding medium was discarded and the cells were washed once with ice-cold DMEM/BSA and twice with cold PBS (pH 7.5) containing 1.6M NaCl. […] Non-specific binding was determined in the presence of a 100-fold excess of unlabeled bFGF.
In order to unequivocally determine the specificity of the binding inhibition, chemical cross-linking of ^125I-bFGF and ^125I-FGF9 to CHO cells transfected with FGFR-1 and FGFR-3, respectively, was carried out as described in Methods, section (iv), in the absence or presence of increasing concentrations of P1.

[3] = target: EGF tyrosine kinase receptor (Homo sapiens, UniProt P00533); test: Binding of EGF to its high affinity tyrosine kinase receptor
Chain of EGF tyrosine kinase receptor (P00533 25-1210): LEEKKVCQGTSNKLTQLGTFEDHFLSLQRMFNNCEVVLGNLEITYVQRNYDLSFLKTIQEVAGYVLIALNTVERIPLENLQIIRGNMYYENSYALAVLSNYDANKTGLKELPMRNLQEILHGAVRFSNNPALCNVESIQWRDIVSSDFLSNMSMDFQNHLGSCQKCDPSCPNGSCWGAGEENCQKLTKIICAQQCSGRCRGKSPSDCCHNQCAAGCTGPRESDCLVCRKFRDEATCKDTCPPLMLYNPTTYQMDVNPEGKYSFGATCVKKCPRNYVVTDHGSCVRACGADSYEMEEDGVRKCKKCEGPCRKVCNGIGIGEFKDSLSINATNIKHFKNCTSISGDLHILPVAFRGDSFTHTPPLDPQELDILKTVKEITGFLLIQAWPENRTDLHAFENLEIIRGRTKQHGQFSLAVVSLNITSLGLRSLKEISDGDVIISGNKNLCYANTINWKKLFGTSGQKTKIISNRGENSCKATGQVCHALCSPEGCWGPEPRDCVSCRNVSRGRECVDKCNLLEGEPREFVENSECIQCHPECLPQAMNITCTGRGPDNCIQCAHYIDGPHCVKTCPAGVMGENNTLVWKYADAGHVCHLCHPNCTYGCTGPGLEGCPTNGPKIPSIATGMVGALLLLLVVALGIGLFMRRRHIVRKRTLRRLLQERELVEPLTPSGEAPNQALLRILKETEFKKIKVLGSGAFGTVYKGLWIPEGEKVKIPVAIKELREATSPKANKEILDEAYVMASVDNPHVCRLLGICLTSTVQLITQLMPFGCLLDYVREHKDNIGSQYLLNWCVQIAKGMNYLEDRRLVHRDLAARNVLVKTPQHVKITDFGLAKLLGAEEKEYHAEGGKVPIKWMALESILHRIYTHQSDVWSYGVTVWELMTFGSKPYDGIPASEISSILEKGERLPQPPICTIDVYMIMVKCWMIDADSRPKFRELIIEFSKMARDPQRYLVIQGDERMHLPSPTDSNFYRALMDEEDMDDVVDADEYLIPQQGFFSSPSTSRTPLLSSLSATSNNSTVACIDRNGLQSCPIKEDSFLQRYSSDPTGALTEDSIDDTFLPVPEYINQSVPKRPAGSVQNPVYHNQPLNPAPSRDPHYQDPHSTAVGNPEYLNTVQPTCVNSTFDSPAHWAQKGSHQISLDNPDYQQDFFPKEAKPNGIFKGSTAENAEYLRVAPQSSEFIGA

[4] = tested on: Lewis lung carcinoma (LLC) D122 cells; test: Lewis lung carcinoma primary tumor growth (foot pad); format: in vivo, C57 black mice; details: 25 μg/g of body mass IP twice a week
Experimental: (vii) Lewis lung carcinoma tumor assay. Murine Lewis lung carcinoma (LLC) D122 cells (1×10^6 cells/[…] PBS) were injected into the foot pads of 10-week old C57 black mice (O'Reilly et al, 1994). Twenty five μg/g of body mass of porphyrin or corrole compound dissolved in PBS were injected IP twice a week to the treated group, and tumor size was measured periodically in order to follow primary tumor formation. In order to evaluate inhibition of lung metastasis by porphyrin or corrole compound, the primary tumors were allowed to develop over a period of six weeks to a volume of approximately 8 mm^3; after which the tumors were removed and metastases were allowed to develop for four weeks. During this time the treated group received 25 μg/g of body mass of porphyrin or corrole compound IP twice a week. Subsequently the mice were sacrificed, dissected and the lungs removed and photographed. The extent of lung metastasis was measured by weighing the lungs.
Inhibition of primary tumor growth was tested using the well-established LLC murine tumor growth and metastasis model (Methods, section (vii)). LLC D122 cells (200,000 cells per mouse) were injected into the foot pads of 10-week old C57 black mice. […] The inhibition of the foot pad primary carcinoma tumor growth was statistically established and reproducible in five experiments.

T1 sequence (P22607 23-806, species assumed): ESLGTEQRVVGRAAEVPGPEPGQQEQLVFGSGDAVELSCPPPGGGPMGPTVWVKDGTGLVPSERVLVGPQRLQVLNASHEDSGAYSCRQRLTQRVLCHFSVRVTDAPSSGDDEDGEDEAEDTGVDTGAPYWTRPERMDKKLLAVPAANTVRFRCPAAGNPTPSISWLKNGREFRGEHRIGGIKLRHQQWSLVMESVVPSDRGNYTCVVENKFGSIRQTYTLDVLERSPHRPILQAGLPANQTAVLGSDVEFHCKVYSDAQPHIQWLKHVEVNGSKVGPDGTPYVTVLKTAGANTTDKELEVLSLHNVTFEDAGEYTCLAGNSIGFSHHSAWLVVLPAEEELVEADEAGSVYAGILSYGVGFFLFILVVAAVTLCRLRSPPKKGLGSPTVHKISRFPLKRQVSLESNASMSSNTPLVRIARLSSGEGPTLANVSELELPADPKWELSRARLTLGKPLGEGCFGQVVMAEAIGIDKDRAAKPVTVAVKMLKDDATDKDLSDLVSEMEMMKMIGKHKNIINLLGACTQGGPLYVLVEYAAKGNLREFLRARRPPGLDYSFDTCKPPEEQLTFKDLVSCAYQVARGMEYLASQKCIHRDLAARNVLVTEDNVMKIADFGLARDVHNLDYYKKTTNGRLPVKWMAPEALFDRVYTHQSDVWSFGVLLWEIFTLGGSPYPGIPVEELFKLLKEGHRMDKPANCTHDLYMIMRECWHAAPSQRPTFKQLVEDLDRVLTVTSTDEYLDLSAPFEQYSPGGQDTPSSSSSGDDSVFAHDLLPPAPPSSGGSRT

Row | SMILES | Effect on FGFR-3 tyrosine phosphorylation (FGFR-3) | Effect on ERK activation (ERK) | Effect on bFGF-induced endothelial cell growth ([1]; 10 μM, with 2 ng/ml bFGF) | Effect on microvascular tubules ([1]; 100 μl P1, with 2 ng/ml bFGF) | Inhibition of tumor formation in nude mice, in words [2] | Inhibition of bFGF-receptor complex formation (cross-linking), in words (FGFR-1) | Inhibition of EGF binding to its receptor [3] | Inhibition of primary tumor growth in LLC model, in words [4]
1 | C[n+]1ccc(-c2c3nc(c(-c4cc[n+](C)cc4)c4ccc([nH]4)c(-c4c(F)c(F)c(F)c(F)c4F)c4nc(c(-c5cc[n+](C)cc5)c5ccc2[nH]5)C=C4)C=C3)cc1.[I-].[I-].[I-] [Compound P16, 5-Pentafluorophenyl-10,15,20-tris(N-methyl-4-pyridylium)-21H,23H-porphine triiodide] | reduced both the basal and, to a much greater extent, the FGF-9 induced phosphorylation of FGFR-3 | clear reduction in the activation |  |  |  |  |  | 
2 | C[n+]1ccc(-c2c3nc(c(-c4cc[n+](C)cc4)c4ccc([nH]4)c(-c4cc[n+](C)cc4)c4nc(c(-c5cc[n+](C)cc5)c5ccc2[nH]5)C=C4)C=C3)cc1 [Compound P1, 5,10,15,20-Tetrakis(N-methyl-4-pyridylium)-21H,23H-porphine tetra-p-tosylate] |  |  | dramatically reduced the extent of endothelial cell growth | complete inhibition of microvascular tubules | clear inhibition of tumor formation | inhibition of formation of a typical bFGF-receptor complex | does not inhibit | marked inhibition in primary tumor growth
